Assay results as given in patent US5607937A, “Piperazides of substituted phenylalanine derivatives as thrombin inhibitors” (priority 1993, dated 1997).

Assays:
[1] = system: coagulation in human plasma; assay: prothrombin time (PT, Quick value) in human plasma
[2] = plasma concentration in rats after intravenous administration; format: in vivo; settings: rat
Experimental: (§4) A physiological NaCl solution of the substance to be tested was submitted to high pressure liquid chromatography (HPLC) in order to determine its characteristic substance-specific retention time with the chosen test conditions.
(§5) The substance to be tested was diluted in vitro in rat plasma. This solution was also submitted to HPLC to see whether the characteristic peak of the substance once again appeared at the substance-specific retention time.
(§6) Blood samples were taken at time intervals of 15 minutes, from which plasma samples were prepared by centrifugation; those samples were also submitted to HPLC to see whether the characteristic peak of the substance appeared again at the substance-specific retention time.
(§7) After administration, blood samples were taken from the test animals at time intervals from 2 to maximally 360 minutes and the blood level of the compounds to be tested was determined by HPLC.

factor Xa = factor Xa (Bos taurus, UniProt P00743); assay: inhibition of factor Xa, dissociation constant Ki; format: biochemical; settings: Table 1
Experimental: (§1) The biological activity of the compounds of the present invention was determined in vitro as well as in vivo.

[3] = plasma level in the stasis-induced thrombosis study, rectal application; format: in vivo; settings: rat; for concentration at 0.5 h: 30 min; for concentration at 1 h: 60 min
Experimental: (§2) The antithrombotic activity of the compounds was determined in the rat on the model of the stasis-induced thrombosis according to Wessler et al. (J. Appl. Physiol. 14, 943-946, 1959). The thrombus was induced by serum 30 min after application of the inhibitor and macroscopically evaluated after 10 further min.
(§3) After rectal application, the compounds of the present invention are absorbed to an extent leading to antithrombotically active plasma levels. This has been shown with the model of the stasis-induced venous thrombosis in the rat according to Wessler et al. This method consisted in macroscopically evaluating thrombi induced by serum in jugular vein segments by means of a scale (0=liquid blood, 1=one or several small thrombi, 2=not fully closed vascular segment, 3=fully closed vascular segment). The antithrombotic effect is clearly dose-dependent.

trypsin = target: T1, trypsin (Bos taurus, UniProt P00760); assay: inhibition of trypsin, dissociation constant Ki; format: biochemical; set-up: thrombin and the related enzymes trypsin, plasmin, factor Xa, factor XIIa
T1 sequence (P00760 24-246): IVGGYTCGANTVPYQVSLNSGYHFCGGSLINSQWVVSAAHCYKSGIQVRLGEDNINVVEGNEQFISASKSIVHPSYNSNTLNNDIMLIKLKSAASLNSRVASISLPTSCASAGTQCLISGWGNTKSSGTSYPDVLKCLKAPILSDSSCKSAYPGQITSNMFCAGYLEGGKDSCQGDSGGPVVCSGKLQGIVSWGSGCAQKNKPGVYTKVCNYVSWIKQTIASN
Experimental: as §1

factor XIIa = target: T2, factor XIIa (Homo sapiens, UniProt P00748); assay: inhibition of factor XIIa, dissociation constant Ki
T2 sequence (P00748 373-615 limits assumed): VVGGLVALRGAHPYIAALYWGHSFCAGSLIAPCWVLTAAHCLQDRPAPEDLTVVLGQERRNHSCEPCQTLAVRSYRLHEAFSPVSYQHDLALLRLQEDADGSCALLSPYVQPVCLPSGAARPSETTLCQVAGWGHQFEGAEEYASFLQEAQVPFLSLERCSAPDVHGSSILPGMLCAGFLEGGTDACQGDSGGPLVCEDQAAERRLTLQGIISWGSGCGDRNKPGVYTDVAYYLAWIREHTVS

glandular kallikrein = glandular kallikrein (Sus scrofa, UniProt P00752); assay: inhibition of glandular kallikrein, dissociation constant Ki
tPA = tPA (Homo sapiens, UniProt P00750); assay: inhibition of tPA, dissociation constant Ki
thrombin = thrombin (Bos taurus, UniProt P00735)
[4] = system: stasis-induced venous thrombosis in the rat; assay: antithrombotic efficacy, stasis-induced venous thrombosis model (Wessler); format: in vivo; settings: for Thrombus scale 0 (vein segments): 0=liquid blood; for Thrombus scale 1 (vein segments): 1=one or several small thrombi; for Thrombus scale 2 (vein segments): 2=not fully closed vascular segment; for Thrombus scale 3 (vein segments): 3=fully closed vascular segment
Experimental: as §2, §3
The relative thrombus scale is the quotient of the mean thrombus size of the treated group (e.g. the mean value at 5 mg/kg is 1.2) and the mean thrombus size of the control group (2.9).

in vivo = settings: plasma, rat, intraduodenal 100 mg/kg
[5] = concentration in rat plasma in the anticoagulant study after rectal application; format: in vivo; settings: for concentration at 0.5 h / concentration at 1 h / concentration at 2 h / concentration at 3 h: plasma; for concentration at 0.5 h: 30 min; for concentration at 1 h: 60 min; for concentration at 2 h: 120 min; for concentration at 3 h: 180 min; for Concentration in plasma: 0 min
plasma kallikrein = plasma kallikrein (Homo sapiens, UniProt P03952); assay: inhibition of plasma kallikrein, dissociation constant Ki
plasmin = plasmin (Homo sapiens, UniProt P00747); assay: inhibition of plasmin, dissociation constant Ki
[6] = plasma concentration in rats after rectal administration; format: in vivo; settings: rat
[7] = plasma concentration in rats after oral administration; format: in vivo; settings: rat
Experimental: as §4, §5, §6, §7

Sequence of factor Xa (P00743 234-492 limits assumed): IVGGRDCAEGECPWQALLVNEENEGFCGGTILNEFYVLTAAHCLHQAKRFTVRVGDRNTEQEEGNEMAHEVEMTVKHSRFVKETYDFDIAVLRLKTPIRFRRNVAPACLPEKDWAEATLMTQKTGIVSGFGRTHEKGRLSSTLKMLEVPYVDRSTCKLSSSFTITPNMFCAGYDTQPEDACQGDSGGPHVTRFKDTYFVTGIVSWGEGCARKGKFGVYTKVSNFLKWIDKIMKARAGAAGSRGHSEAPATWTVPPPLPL
Sequence of factor Xa (P00743 41-180 partner limits assumed): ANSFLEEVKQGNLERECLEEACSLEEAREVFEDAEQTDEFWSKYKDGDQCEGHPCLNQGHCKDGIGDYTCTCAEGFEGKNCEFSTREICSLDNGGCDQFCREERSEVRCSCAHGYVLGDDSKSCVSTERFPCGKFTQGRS
Sequence of plasmin (P00747 581-810 limits assumed): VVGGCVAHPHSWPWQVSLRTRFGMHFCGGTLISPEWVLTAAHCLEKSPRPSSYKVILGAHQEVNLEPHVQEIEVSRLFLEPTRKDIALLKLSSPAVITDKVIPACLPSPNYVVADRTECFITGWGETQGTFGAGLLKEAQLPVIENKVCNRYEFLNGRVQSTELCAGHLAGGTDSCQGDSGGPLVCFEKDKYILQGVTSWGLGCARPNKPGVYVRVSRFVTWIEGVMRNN
Sequence of plasmin (P00747 97-580 partner limits assumed): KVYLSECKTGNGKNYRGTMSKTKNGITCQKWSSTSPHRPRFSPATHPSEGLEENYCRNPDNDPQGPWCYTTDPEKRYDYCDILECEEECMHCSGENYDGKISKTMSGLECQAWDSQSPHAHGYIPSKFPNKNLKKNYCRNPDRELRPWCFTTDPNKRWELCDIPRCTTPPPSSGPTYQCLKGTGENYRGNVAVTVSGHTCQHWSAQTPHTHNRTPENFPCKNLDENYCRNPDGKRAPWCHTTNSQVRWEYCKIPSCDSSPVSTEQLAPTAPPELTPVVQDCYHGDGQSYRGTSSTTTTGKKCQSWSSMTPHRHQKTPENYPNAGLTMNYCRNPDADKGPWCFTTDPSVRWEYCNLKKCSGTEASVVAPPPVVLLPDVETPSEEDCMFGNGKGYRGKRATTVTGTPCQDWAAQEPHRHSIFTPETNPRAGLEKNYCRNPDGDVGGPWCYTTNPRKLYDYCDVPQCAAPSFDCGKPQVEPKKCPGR
Sequence of tPA (P00750 36-562): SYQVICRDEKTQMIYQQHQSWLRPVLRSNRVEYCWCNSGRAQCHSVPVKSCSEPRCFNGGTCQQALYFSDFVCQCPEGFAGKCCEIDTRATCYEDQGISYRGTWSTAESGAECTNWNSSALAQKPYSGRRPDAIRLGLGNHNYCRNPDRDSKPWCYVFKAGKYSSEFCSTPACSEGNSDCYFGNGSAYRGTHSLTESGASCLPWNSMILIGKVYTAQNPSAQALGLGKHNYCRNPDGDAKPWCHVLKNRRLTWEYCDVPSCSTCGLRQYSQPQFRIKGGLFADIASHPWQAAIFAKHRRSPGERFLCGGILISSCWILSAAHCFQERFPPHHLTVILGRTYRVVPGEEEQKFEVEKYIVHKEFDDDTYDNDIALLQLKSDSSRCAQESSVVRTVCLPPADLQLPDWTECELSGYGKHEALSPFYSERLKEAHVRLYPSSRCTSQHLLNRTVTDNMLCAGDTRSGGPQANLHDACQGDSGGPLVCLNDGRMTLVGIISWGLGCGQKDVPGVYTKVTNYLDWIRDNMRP
Sequence of plasma kallikrein (P03952 391-638 limits assumed, species assumed): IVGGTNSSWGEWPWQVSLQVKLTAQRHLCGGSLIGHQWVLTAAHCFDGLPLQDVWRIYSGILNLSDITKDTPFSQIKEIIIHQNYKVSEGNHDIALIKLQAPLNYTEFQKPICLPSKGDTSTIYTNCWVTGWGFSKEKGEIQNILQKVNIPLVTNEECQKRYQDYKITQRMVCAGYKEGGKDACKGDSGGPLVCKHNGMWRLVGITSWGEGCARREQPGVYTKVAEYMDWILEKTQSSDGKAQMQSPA
Sequence of plasma kallikrein (P03952 20-390 partner limits assumed, species assumed): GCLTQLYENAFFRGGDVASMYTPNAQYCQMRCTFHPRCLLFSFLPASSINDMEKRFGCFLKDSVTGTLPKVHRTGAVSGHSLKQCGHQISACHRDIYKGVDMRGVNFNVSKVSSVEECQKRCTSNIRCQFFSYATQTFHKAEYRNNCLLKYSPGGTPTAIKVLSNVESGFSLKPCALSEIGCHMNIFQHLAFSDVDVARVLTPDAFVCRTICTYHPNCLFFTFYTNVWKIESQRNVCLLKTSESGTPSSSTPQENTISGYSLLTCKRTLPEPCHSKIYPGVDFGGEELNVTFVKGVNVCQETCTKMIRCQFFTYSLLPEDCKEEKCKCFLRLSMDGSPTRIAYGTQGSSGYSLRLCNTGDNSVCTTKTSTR
Sequence of glandular kallikrein (P00752 8-246): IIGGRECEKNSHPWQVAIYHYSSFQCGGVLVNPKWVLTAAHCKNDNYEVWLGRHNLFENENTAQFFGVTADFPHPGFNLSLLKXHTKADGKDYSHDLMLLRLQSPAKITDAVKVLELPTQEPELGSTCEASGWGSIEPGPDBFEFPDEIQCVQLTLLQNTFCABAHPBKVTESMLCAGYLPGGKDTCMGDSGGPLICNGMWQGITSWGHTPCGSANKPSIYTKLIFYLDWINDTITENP

SMILES: CC(=O)N1CCN(C(=O)[C@H](Cc2cccc(C(=N)N)c2)NS(=O)(=O)c2ccc3ccccc3c2)CC1.Cl [Compound 2, Nα-(2-naphthylsulfonyl)-(L)-3-amidinophenylalanine-4-acetylpiperazide hydrochloride]
- Concentr. to double the Prothrombin time [1]: 0.90 µmol/L
- concentration to double the PT [1]: ≤ 1 μmol/1
- concentration at 5 min ([2]; plasma, iv, i.v. 1 mg/kg, 5 min): 780 ng/mL
- concentration at 0.25 h ([2]; plasma, iv, i.v. 1 mg/kg, 15 min): 224 ng/mL
- concentration at 0.5 h ([2]; plasma, iv, i.v. 1 mg/kg, 30 min): 95 ng/mL
- concentration at 1 h ([2]; plasma, iv, i.v. 1 mg/kg, 60 min): 38 ng/mL
- concentration at 2 h ([2]; plasma, iv, i.v. 1 mg/kg, 120 min): 12 ng/mL
- concentration at 3 h ([2]; plasma, iv, i.v. 1 mg/kg, 180 min): 10 ng/mL
- elimination in words ([2]; i.v.): eliminated at comparable rate
- Ki (factor Xa): 35 µM
- concentration at 0.5 h ([3]; rectal 5 mg/kg): 228 ng/mL
- concentration at 1 h ([3]; rectal 5 mg/kg): 160 ng/mL
- concentration at 0.5 h ([3]; rectal 20 mg/kg): 1620 ng/mL
- concentration at 1 h ([3]; rectal 20 mg/kg): 998 ng/mL
- concentration at 0.5 h ([3]; rectal 100 mg/kg): 28700 ng/mL
- concentration at 1 h ([3]; rectal 100 mg/kg): 16100 ng/mL
- Ki (trypsin): 0.044 µM
- Ki (factor XIIa): 150 µM
- Ki (glandular kallikrein): > 1000 µM
- Ki (tPA): 440 µM
- thrombin inhibition in words (thrombin): potent thrombin inhibitor
- Thrombus scale 0 (vein segments) ([4]; rectal 5 mg/kg): 0
- Thrombus scale 1 (vein segments) ([4]; rectal 5 mg/kg): 8
- Thrombus scale 2 (vein segments) ([4]; rectal 5 mg/kg): 2
- Thrombus scale 3 (vein segments) ([4]; rectal 5 mg/kg): 0
- mean thrombus size of the treated group ([4]; rectal 5 mg/kg, scale 0-3, control 2.9): 1.2
- Thrombus scale 0 (vein segments) ([4]; rectal 20 mg/kg): 6
- Thrombus scale 1 (vein segments) ([4]; rectal 20 mg/kg): 1
- Thrombus scale 2 (vein segments) ([4]; rectal 20 mg/kg): 0
- Thrombus scale 3 (vein segments) ([4]; rectal 20 mg/kg): 0
- Thrombus scale 0 (vein segments) ([4]; rectal 100 mg/kg): 6
- Thrombus scale 1 (vein segments) ([4]; rectal 100 mg/kg): 0
- Thrombus scale 2 (vein segments) ([4]; rectal 100 mg/kg): 0
- Thrombus scale 3 (vein segments) ([4]; rectal 100 mg/kg): 0
- concentration at 0.5 h (in vivo; 30 min): 21700 ng/mL
- concentration at 1 h (in vivo; 60 min): 15200 ng/mL
- concentration at 2 h (in vivo; 120 min): 4280 ng/mL
- concentration at 3 h (in vivo; 180 min): 2600 ng/mL
- concentration at 4 h (in vivo; 240 min): 2180 ng/mL
- concentration at 5 h (in vivo; 300 min): 2200 ng/mL
- concentration at 6 h (in vivo; 360 min): 2850 ng/mL
- concentration at 0.5 h ([5]; rectal 5 mg/kg): 296 ng/mL
- concentration at 1 h ([5]; rectal 5 mg/kg): 160 ng/mL
- concentration at 2 h ([5]; rectal 5 mg/kg): 60 ng/mL
- concentration at 3 h ([5]; rectal 5 mg/kg): 40 ng/mL
- concentration at 0.5 h ([5]; rectal 20 mg/kg): 5440 ng/mL
- concentration at 1 h ([5]; rectal 20 mg/kg): 2090 ng/mL
- concentration at 2 h ([5]; rectal 20 mg/kg): 812 ng/mL
- concentration at 3 h ([5]; rectal 20 mg/kg): 660 ng/mL
- Concentration in plasma ([5]; rectal 5 mg/kg): 0 ng/mL
- Concentration in plasma ([5]; rectal 20 mg/kg): 0 ng/mL
- Ki (plasma kallikrein): 15 µM
- Ki (plasmin): 5.4 µM
- concentration at 0.5 h ([6]; plasma, rectal 100 mg/kg, 30 min): 32400 ng/mL
- concentration at 1 h ([6]; plasma, rectal 100 mg/kg, 60 min): 23100 ng/mL
- concentration at 2 h ([6]; plasma, rectal 100 mg/kg, 120 min): 5300 ng/mL
- concentration at 3 h ([6]; plasma, rectal 100 mg/kg, 180 min): 2700 ng/mL
- concentration at 4 h ([6]; plasma, rectal 100 mg/kg, 240 min): 1260 ng/mL
- concentration at 5 h ([6]; plasma, rectal 100 mg/kg, 300 min): 810 ng/mL
- concentration at 6 h ([6]; plasma, rectal 100 mg/kg, 360 min): 508 ng/mL
- detectable in plasma after rectal administration ([6]; rectal): ≥ 6 h
- detection/blood levels in words ([6]; rectal): absorbed by the intestine in particular after rectal administration to rats
- concentration at 0.5 h ([7]; plasma, oral 50 mg/kg, 30 min): 1200 ng/mL
- concentration at 1 h ([7]; plasma, oral 50 mg/kg, 60 min): 873 ng/mL
- concentration at 2 h ([7]; plasma, oral 50 mg/kg, 120 min): 333 ng/mL
- concentration at 3 h ([7]; plasma, oral 50 mg/kg, 180 min): 124 ng/mL
- concentration at 4 h ([7]; plasma, oral 50 mg/kg, 240 min): 44 ng/mL
- concentration at 5 h ([7]; plasma, oral 50 mg/kg, 300 min): 46 ng/mL
- resorption in words ([7]; oral): only slightly resorbed
